Assay results as given in US6011058A, “Seco-cholestane derivatives and methods of making the same” (Georgia Tech Research Corporation, priority 1998, dated 2000).
In brackets after ≈: the same amount, converted by molar mass. Entries after “also recorded” stand apart in the source; their conditions may differ. Where two headings read alike, the source gives them in different places. Values belong to the molecule of their own block, whether it stands above or below them.

What was measured:
[1] = target: T1, glutathione S-transferase (GST) fusion protein containing the full length sequence for human cdc25A (Homo sapiens, UniProt P30304); test: Inhibition of CDC25A phosphatase (fluorescein diphosphate substrate); type: biochemical; details: for IC50: 10 mM dithiothreitol, fluorescein diphosphate substrate, read-out: Approximate IC50 (concentration yielding 50% inhibition of cdc25A) (converted); for relative potency against CDC25A, vs the double bond unsaturated compounds in the series: compared with double bond unsaturated compound in this series
T1 construct: made in house; host or cells: Escherichia coli
T1 sequence (P30304 1-524): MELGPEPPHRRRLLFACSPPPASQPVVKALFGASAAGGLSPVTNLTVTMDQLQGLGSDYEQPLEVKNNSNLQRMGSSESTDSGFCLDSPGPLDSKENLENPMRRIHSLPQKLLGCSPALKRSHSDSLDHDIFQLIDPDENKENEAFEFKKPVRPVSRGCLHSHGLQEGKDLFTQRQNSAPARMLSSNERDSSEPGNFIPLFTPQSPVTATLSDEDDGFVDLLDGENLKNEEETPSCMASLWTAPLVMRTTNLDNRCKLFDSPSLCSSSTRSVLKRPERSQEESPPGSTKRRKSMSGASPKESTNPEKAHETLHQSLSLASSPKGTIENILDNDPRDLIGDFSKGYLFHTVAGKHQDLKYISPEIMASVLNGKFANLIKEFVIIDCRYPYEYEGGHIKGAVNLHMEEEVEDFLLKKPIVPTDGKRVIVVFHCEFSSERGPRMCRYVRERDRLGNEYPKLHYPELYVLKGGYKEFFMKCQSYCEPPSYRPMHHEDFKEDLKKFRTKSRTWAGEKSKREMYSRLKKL
Source text: Rice, R. L. et al., A targeted Library of Small-Molecule, Tyrosine, and Dual-Specificity Phosphatase Inhibitors Derived from a Rational Core Design and Random Side Chain Variation, Biochemistry, 1997, 36, 15965-15974. Briefly, the target enzyme for the assay was a glutathione S-transferase (GST) fusion protein containing the full length sequence for human cdc25A. The enzyme was expressed in Escherichia coli and purified by affinity chromatography over glutathione-agarose. Enzyme activity was measured under linear reaction conditions with fluorescein diphosphate as the substrate. Reactions were performed in the presence of 10 mM dithiothreitol to eliminate oxidant-type inhibitors from scoring as hits in this assay.

[2] = tested on: HT-29 human colon cancer cells; test: Inhibition of HT-29 colon carcinoma cell growth, soft agarose colony-forming assay; type: cell-based; details: HT-29, 168 h, continuous drug exposure over 7 days, read-out: IC50, proliferation of HT-29 colon cancer cells
Procedure: (§1) HT-29 human colon cancer cells and A549 human lung adenocarcinoma cells were purchased from the American Tissue Type Collection (Rockville, Md.). The cell were maintained in Dulbecco's modified Eagle's media (DMEM) containing 10% fetal bovine serum and harvested with 0.05% trypsin and 0.5 mM EDTA before becoming confluent.
Compounds 6 and 8 prepared as discussed in the preceding examples were also evaluated for potency as inhibitors of colon cancer cell lines (HT-29). Inhibition of HT-29 colon carcinoma cell growth by compounds 6 and 8 was measured in the soft agarose colony-forming assay with continuous drug exposure over 7 days as previously described. Alley M. C. et al., Activation and inactivation of cancer chemotherapeutic agents by rat heptocytes cocultured with human tumor cell lines, Cancer Res 44:549 (1984). Briefly, soft-agarose culture was performed in 35-mm culture dishes contained a base layer consisting of 0.5 ml of standard culture medium with 0.5% agarose. […] Cell lines forming a sufficient number of detectable colonies were analyzed following 7 days of incubation. Viable colonies were stained using metabolizable tetrazolium salt, and analyzed as described previously. […]

[3] = tested on: A549 human lung adenocarcinoma cells; test: Clonogenic assay, inhibition of growth of lung adenocarcinoma (A549) cells; type: cell-based
Procedure: as §1
Compound 6 prepared as discussed in the preceding examples were also evaluated for potency as inhibitors of the growth of lung adenocarcinoma cell lines. The effect of compound 6 was assessed with a clonogenic assay. In brief, A549 cells in log-phase growth were harvested, resuspended in fresh growth media and plated in triplicate in 60 mm dishes at cell concentrations estimated to yield 20-100 colonies per dish following treatment. Four hours after plating, cells were either exposed to compound 6 for one day followed by a wash and culture in fresh medium for 11 days (dotted line), or continuously exposed to this compound for 12 days (solid line). Cells were fixed and stained with Coomassie Blue at the end of the 12th day. Colonies with greater than 50 cells were scored.

Molecule: 3-actoxy-5, 6-seco-5-oxo-pregnen-6-oic acid [reference compound]
inhibitory activity against CDC25A phosphatase ([1]; negative control): no inhibitory activity; also recorded: lost its activity

Molecule: C/C(=C/C/C=C\C#N)[C@H]1CC[C@]2(C)[C@@H]([C@H](C)CCCC(C)C)CC[C@H]2[C@@H]1CC(=O)O [Compound 9]
IC50 [1]: > 24.2 µM

Molecule: C=C(CC/C=C\C#N)[C@H]1CC[C@]2(C)[C@@H]([C@H](C)CCCC(C)C)CC[C@H]2[C@@H]1CC(=O)O [Compound 8]
IC50 [1]: 10.6 µM
IC50 [2]: 4.8 µg/mL (≈ 11.6 µM)

Molecule: CC(C)CCC[C@@H](C)[C@H]1CC[C@H]2[C@@H]3CC(=O)O[C@@](C)(CC/C=C\C#N)[C@H]3CC[C@]12C [Compound 7]
IC50 [1]: > 121 µM
relative activity against CDC25A, vs 10R isomer compound 6 ([1]; 10S vs 10R isomer, compound 6): much less active

Molecule: CC(C)CCC[C@@H](C)[C@H]1CC[C@H]2[C@@H]3CC(=O)O[C@](C)(CC/C=C\C#N)[C@H]3CC[C@]12C [Compound 6]
IC50 [1]: 14.5 µM
IC50 [2]: 5 µg/mL (≈ 12.1 µM)
IC50 ([3]; A549, 288 h, 12-day continuous exposure, read-out: concentration reducing number of A549 colonies per dish 50%): 7 µM
IC50 ([3]; A549, one day exposure, wash, then fresh medium for 11 days, read-out: concentration giving 50% reduction of the tumor cell colony number per dish): 37 µM

The remaining lines, values ahead:

IC50 [1]: 2.17 µM
relative potency against CDC25A, vs the double bond unsaturated compounds in the series [1]: much more potent
Molecule: CC(C)CCC[C@@H](C)[C@H]1CC[C@H]2[C@@H]3CC(=O)O[C@](C)(CCCCC#N)[C@H]3CC[C@]12C [Compound 15]

IC50 [1]: 2.17 µM
relative potency against CDC25A, vs the double bond unsaturated compounds in the series [1]: much more potent
Molecule: C=C(CCCCC#N)[C@H]1CC[C@]2(C)[C@@H]([C@H](C)CCCC(C)C)CC[C@H]2[C@@H]1CC(=O)O [Compound 13]

IC50 [1]: 24.2 µM
Molecule: C/C(=C\C/C=C\C#N)[C@H]1CC[C@]2(C)[C@@H]([C@H](C)CCCC(C)C)CC[C@H]2[C@@H]1CC(=O)O [Compound 10]
